Patent publication US11684598B2, “Use of cannabinoids in the treatment of epilepsy” (priority 2015, dated 2023)
“And” between values parts separate entries of the source, which are not always exact repeats. Identical values can stand only once. Like-named read-outs stand apart in the source and are kept apart here.

Legend:
[1] = Toxicokinetics from toxicological studies in dogs, daily oral (gavage) administration; assay type: in vivo, dog; settings: for Vd/F: read-out: Vz/F
Protocol: Samples were taken from the jugular vein into lithium heparin. Samples were mixed gently by hand then continuously for at least 2 minutes on automatic mixer and placed in a Kryorack until centrifugation, which was carried out at approximately 4° C. as soon as practicable. The resultant plasma was separated under low light conditions, transferred to uniquely labelled clear glass vials, placed in light proof boxes and frozen immediately at <−50° C.

seizures = settings: 200 mg/day pure CBD, twelve institutionalized adult patients, open label; cited from earlier work
[2] = CBD 100 mg/kg oral, Day 1, females, Max
[3] = CBD 100 mg/kg oral, Day 1, females, Min
[4] = CBD 100 mg/kg oral, Day 1, females, individual animals (Subjects 115-120)
[5] = CBD 100 mg/kg oral, Day 1, males, Max
[6] = CBD 100 mg/kg oral, Day 1, males, Min
[7] = CBD 100 mg/kg oral, Day 1, males, individual animals (Subjects 15-20)

C=C(C)[C@@H]1CCC(C)=C[C@H]1c1c(O)cc(CCCCC)cc1O [CBD, Cannabidiol]
tl/2 ([1]; CBD 100 mg/kg oral, Day 1, females, Geometric Mean): 5.9 h | AUC0-inf [1, 2]: 32800 ng·h/mL | AUC0-t [1, 2]: 32400 ng·h/mL | CL/F [1, 2]: 632 mL/min/kg | Cmax [1, 2]: 3780 ng/mL | tl/2 [1, 2]: 8.4 h | tmax [1, 2]: 8.0 h | tl/2 ([1]; CBD 100 mg/kg oral, Day 1, females, Mean, N=4): 6.1 h | tl/2 ([1]; CBD 100 mg/kg oral, Day 1, females, Median): 5.7 h | AUC0-inf [1, 3]: 2640 ng·h/mL | AUC0-t [1, 3]: 2540 ng·h/mL | CL/F [1, 3]: 50.8 mL/min/kg | Cmax [1, 3]: 411 ng/mL | tl/2 [1, 3]: 4.5 h | tmax [1, 3]: 1.0 h | AUC0-inf [1, 4]: 32800 ng·h/mL and 3280 ng·h/mL and 22400 ng·h/mL and 2640 ng·h/mL | AUC0-t [1, 4]: 31300 ng·h/mL and 3000 ng·h/mL and 20000 ng·h/mL and 22600 ng·h/mL and 2540 ng·h/mL and 32400 ng·h/mL | CL/F [1, 4]: 50.8 mL/min/kg and 508 mL/min/kg and 74.5 mL/min/kg and 632 mL/min/kg | Cmax [1, 4]: 3780 ng/mL and 655 ng/mL and 2520 ng/mL and 1900 ng/mL and 411 ng/mL and 3270 ng/mL | tl/2 [1, 4]: 4.7 h and 8.4 h and 6.6 h and 4.5 h | tmax [1, 4]: 2.0 h and 8.0 h and 1.0 h | tl/2 ([1]; CBD 100 mg/kg oral, Day 1, males, Geometric Mean): 7.0 h | AUC0-inf [1, 5]: 60500 ng·h/mL | AUC0-t [1, 5]: 51800 ng·h/mL | CL/F [1, 5]: 82.1 mL/min/kg | Cmax [1, 5]: 4570 ng/mL | tl/2 [1, 5]: 8.6 h | tmax [1, 5]: 8.0 h | tl/2 ([1]; CBD 100 mg/kg oral, Day 1, males, Mean, N=5): 7.2 h | tl/2 ([1]; CBD 100 mg/kg oral, Day 1, males, Median): 7.7 h | AUC0-inf [1, 6]: 20300 ng·h/mL | AUC0-t [1, 6]: 17200 ng·h/mL | CL/F [1, 6]: 27.5 mL/min/kg | Cmax [1, 6]: 1400 ng/mL | tl/2 [1, 6]: 5.4 h | AUC0-inf [1, 7]: 55300 ng·h/mL and 60500 ng·h/mL and 20300 ng·h/mL and 31100 ng·h/mL | AUC0-t [1, 7]: 47300 ng·h/mL and 51800 ng·h/mL and 33000 ng·h/mL and 17200 ng·h/mL and 28700 ng·h/mL and 26400 ng·h/mL | CL/F [1, 7]: 30.1 mL/min/kg and 27.5 mL/min/kg and 82.1 mL/min/kg and 53.6 mL/min/kg | Cmax [1, 7]: 3960 ng/mL and 4570 ng/mL and 3620 ng/mL and 1400 ng/mL and 2430 ng/mL and 3090 ng/mL | tl/2 [1, 7]: 8.6 h and 7.7 h and 5.4 h and 8.5 h and 5.7 h | tmax [1, 7]: 8.0 h | AUC0-inf ([1]; female, dog, plasma, po, 100 mg/kg, CBD 100 mg/kg oral, Day 1, females, Geometric Mean, read-out: AUC0-inf): 8930 ng·h/mL | AUC0-t ([1]; female, dog, plasma, po, 100 mg/kg, CBD 100 mg/kg oral, Day 1, females, Geometric Mean, read-out: AUC0-t): 12300 ng·h/mL | CL/F ([1]; female, dog, plasma, po, 100 mg/kg, CBD 100 mg/kg oral, Day 1, females, Geometric Mean, read-out: CL/F): 187 mL/min/kg | Cmax ([1]; female, dog, plasma, po, 100 mg/kg, CBD 100 mg/kg oral, Day 1, females, Geometric Mean, read-out: Cmax): 1590 ng/mL | Vd/F ([1]; female, dog, plasma, po, 100 mg/kg, CBD 100 mg/kg oral, Day 1, females, Geometric Mean): 94.8 L/kg | AUC0-inf ([1]; female, dog, plasma, po, 100 mg/kg, CBD 100 mg/kg oral, Day 1, females, Mean, N=4, read-out: AUC0-inf): 15300 ng·h/mL | CL/F ([1]; female, dog, plasma, po, 100 mg/kg, CBD 100 mg/kg oral, Day 1, females, Mean, N=4, read-out: CL/F): 316 mL/min/kg | Vd/F ([1]; female, dog, plasma, po, 100 mg/kg, CBD 100 mg/kg oral, Day 1, females, Mean, N=4): 169 L/kg | AUC0-t ([1]; female, dog, plasma, po, 100 mg/kg, CBD 100 mg/kg oral, Day 1, females, Mean, N=6, read-out: AUC0-t): 18600 ng·h/mL | Cmax ([1]; female, dog, plasma, po, 100 mg/kg, CBD 100 mg/kg oral, Day 1, females, Mean, N=6, read-out: Cmax): 2090 ng/mL | AUC0-inf ([1]; female, dog, plasma, po, 100 mg/kg, CBD 100 mg/kg oral, Day 1, females, Median, read-out: AUC0-inf): 12800 ng·h/mL | AUC0-t ([1]; female, dog, plasma, po, 100 mg/kg, CBD 100 mg/kg oral, Day 1, females, Median, read-out: AUC0-t): 21300 ng·h/mL | CL/F ([1]; female, dog, plasma, po, 100 mg/kg, CBD 100 mg/kg oral, Day 1, females, Median, read-out: CL/F): 291 mL/min/kg | Cmax ([1]; female, dog, plasma, po, 100 mg/kg, CBD 100 mg/kg oral, Day 1, females, Median, read-out: Cmax): 2210 ng/mL | Vd/F ([1]; female, dog, plasma, po, 100 mg/kg, CBD 100 mg/kg oral, Day 1, females, Median): 145 L/kg | tmax ([1]; female, dog, plasma, po, 100 mg/kg, CBD 100 mg/kg oral, Day 1, females, Median, read-out: tmax): 4 h | AUC0-t ([1]; female, dog, plasma, po, 100 mg/kg, comparative Table 11, females, 100 mg/kg, Day 1, mean, read-out: AUC0-t): 18600 ng·h/mL | Cmax ([1]; female, dog, plasma, po, 100 mg/kg, comparative Table 11, females, 100 mg/kg, Day 1, mean, read-out: Cmax): 2090 ng/mL | AUC0-inf ([1]; male, dog, plasma, po, 100 mg/kg, CBD 100 mg/kg oral, Day 1, males, Geometric Mean, read-out: AUC0-inf): 37600 ng·h/mL | AUC0-t ([1]; male, dog, plasma, po, 100 mg/kg, CBD 100 mg/kg oral, Day 1, males, Geometric Mean, read-out: AUC0-t): 31900 ng·h/mL | CL/F ([1]; male, dog, plasma, po, 100 mg/kg, CBD 100 mg/kg oral, Day 1, males, Geometric Mean, read-out: CL/F): 44.4 mL/min/kg | Cmax ([1]; male, dog, plasma, po, 100 mg/kg, CBD 100 mg/kg oral, Day 1, males, Geometric Mean, read-out: Cmax): 2970 ng/mL | Vd/F ([1]; male, dog, plasma, po, 100 mg/kg, CBD 100 mg/kg oral, Day 1, males, Geometric Mean): 27 L/kg | AUC0-inf ([1]; male, dog, plasma, po, 100 mg/kg, CBD 100 mg/kg oral, Day 1, males, Mean, N=5, read-out: AUC0-inf): 40500 ng·h/mL | CL/F ([1]; male, dog, plasma, po, 100 mg/kg, CBD 100 mg/kg oral, Day 1, males, Mean, N=5, read-out: CL/F): 48.1 mL/min/kg | Vd/F ([1]; male, dog, plasma, po, 100 mg/kg, CBD 100 mg/kg oral, Day 1, males, Mean, N=5): 29.9 L/kg | AUC0-t ([1]; male, dog, plasma, po, 100 mg/kg, CBD 100 mg/kg oral, Day 1, males, Mean, N=6, read-out: AUC0-t): 34100 ng·h/mL | Cmax ([1]; male, dog, plasma, po, 100 mg/kg, CBD 100 mg/kg oral, Day 1, males, Mean, N=6, read-out: Cmax): 3180 ng/mL | AUC0-inf ([1]; male, dog, plasma, po, 100 mg/kg, CBD 100 mg/kg oral, Day 1, males, Median, read-out: AUC0-inf): 35400 ng·h/mL | AUC0-t ([1]; male, dog, plasma, po, 100 mg/kg, CBD 100 mg/kg oral, Day 1, males, Median, read-out: AUC0-t): 30800 ng·h/mL | CL/F ([1]; male, dog, plasma, po, 100 mg/kg, CBD 100 mg/kg oral, Day 1, males, Median, read-out: CL/F): 47.1 mL/min/kg | Cmax ([1]; male, dog, plasma, po, 100 mg/kg, CBD 100 mg/kg oral, Day 1, males, Median, read-out: Cmax): 3360 ng/mL | Vd/F ([1]; male, dog, plasma, po, 100 mg/kg, CBD 100 mg/kg oral, Day 1, males, Median): 22.3 L/kg | tmax ([1]; male, dog, plasma, po, 100 mg/kg, CBD 100 mg/kg oral, Day 1, males, Median, read-out: tmax): 6 h | tmax ([1]; male, dog, plasma, po, 100 mg/kg, CBD 100 mg/kg oral, Day 1, males, individual animals (Subjects 15-20), read-out: tmax): 6 h | AUC0-t ([1]; male, dog, plasma, po, 100 mg/kg, comparative Table 10, males, 100 mg/kg, Day 1, mean, read-out: AUC0-t): 34100 ng·h/mL | Cmax ([1]; male, dog, plasma, po, 100 mg/kg, comparative Table 10, males, 100 mg/kg, Day 1, mean, read-out: Cmax): 3180 ng/mL | control of seizures (seizures): ineffective in controlling seizures
